Assay results as given in patent US8455450B2, “Methods for obtaining a therapeutically effective amount of hematopoietic precursor cells and long term engraftment thereof” (Biokine Therapeutics Ltd., priority 2006, dated 2013).
Like-named read-outs stand apart in the source and are kept apart here.

Columns and labels:
white-blood-cells (WBC) = format: in vivo; details: 5 mg/kg s.c. 4F-benzoyl-TN14003 or AMD3100, 2 h, G-CSF 2.5 μg s.c. twice a day for 4 days, combination 18 h after last G-CSF
[1] = system: hematopoietic progenitor cells (HPCs); assay: Mobilization of hematopoietic progenitor cells to the blood, colony-forming cell assay; format: in vivo, C57BL/6 mice; details: 5 mg/kg s.c. 4F-benzoyl-TN14003 or AMD3100, 2 h, G-CSF 2.5 μg s.c. twice a day for 4 days, combination 18 h after last G-CSF
[2] = system: hematopoietic stem cells (HSCs); assay: Hematopoietic stem cell assay: transplantation of mobilized blood cells into lethally irradiated mice, survival; format: in vivo, C57BL/6 mice; details: 2 h
Protocol: C57BL/6 mice, served as donors, were injected with 5 mg/kg of either 4F-benzoyl-TN14003 or AMD3100. 2 h later peripheral blood cells were collected following by ACK lysis and transferred into C57BL/6 recipient mice that were given a lethal dosing of irradiation (900 cGy) 24 h before i.v. injection of cells. A total cell obtained from 900 or 225 microliter of blood was transferred into single recipient mouse in a total volume of 200 μl PBS. Recipient mice transferred with cells obtained from blood of untreated mice or with normal BM cells were served as controls. Survival of mice was monitored for 4 months.
Although mobilization of HPCs may be of use for short-term repopulation in a transplantation setting, HSCs are required for long-term repopulation. To assess the effect of 4F-benzoyl-TN14003 on mobilization of murine HSCs, a transplantation model was used, in which donor C57Bl/6 mice were treated with 4F-benzoyl-TN14003 or AMD3100. After 2 h, blood was collected and cells isolated from an equal volume of blood obtained from each treated group (900 or 225 microliter in different experiments) were transferred for engraftment in lethally irradiated recipient C57Bl/6 mice. Survival of the recipient mice, indicative for long-term repopulating (LTR) activity and presence of HSCs, was monitored.

[3] = system: BM cells on stromal cells (14F1.1); assay: In vitro production of progenitors and mature cells from BM cells seeded on stromal cells (14F1.1); format: cell-based
Protocol: More specifically, the number of colonies was assayed by collecting the cells (10^5/plate) 4 days after treatment form the treated and control (untreated) plates, and evaluating the number of progenitor cells using a colony-forming cell assay. Burst forming units erythrocyte (BFU-E), colony forming units granulocyte-macrophage (CFU-GM), colony forming units megakaryocytes (CFU-M), and colony forming units granulocyte-erythrocyte-monocyte-macrophage (CFU-GEMM) were assayed by plating the cells in Iscove's-modified Dulbecco's Medium (IMDM) containing 1% methylcellulose, 15% FBS, 1% bovine serum albumin (BSA), 3 U/mL rh EPO, […] 2-mercaptoethanol, 2 mM L-glutamine, 50 ng/mL rmSCF, 10 ng/mL rmIL-3, […] rh Insulin, 10 ng/mL rh IL-6, and […] Human Transferrin (Methocult GF M3434; StemCell Technologies Inc.). The cultures were incubated at 37° C. in a humidified atmosphere containing 5% CO2. Seven days later, typical colonies were visually scored by morphologic criteria using a light microscope and the frequency of CFU was calculated. Staining colonies with benzidine dihydrochloride (Sigma, Israel) was used to localize hemoglobin-containing cells.

PC3 cells = assay: MIP3α secretion by PC3 prostate cells (ELISA); format: cell-based
From the text: (§1) A PC3 prostate cell line that overexpresses high levels of CXCR4 was generated. […] FIG. 1A presents FACS histograms of PC3 cells (left panel) and a single cell clone with stable overexpression of CXCR4, GFP and luc genes (PC3-CXCR4.5, right panel) that were stained for the control (IgG2a-PE, full histograms) and CXCR4 (IgG2a-12G5, empty histograms) antibodies.
(§2) In this example, regulation of the chemokine MIP3α (macrophage inflammatory protein 3α) was examined. […] In FIG. 1B, PC3 (left panel) and PC3-CXCR4.5 (right panel) cells were stimulated with the indicated concentrations of CXCL12 for 48 hours and MIP3α secretion was assessed by ELISA. The results represent the average of triplicates±STDEV.
(§3) The effects of the CXCR4 antagonist AMD3100 and of 4F-benzoyl-TN14003 (4FB-TN14003), hitherto known as a CXCR4 antagonist, on MIP3α secretion were further tested. […] In FIG. 10, CXCR4 signaling in PC3 (left panel) and PC3-CXCR4.5 (right panel) cells was inhibited with anti-CXCL12 antibodies (αCXCL12) and Pertussis toxin (PTX) treatments alone or in combination with CXCL12, as indicated. Secretion of MIP3α was assessed by ELISA. The results represent the average of triplicates±STDEV.

PC3-CXCR4.5 cells = assay: MIP3α secretion by CXCR4-overexpressing PC3-CXCR4.5 cells (ELISA); format: cell-based
From the text: as §1, §2, §3
Spontaneous secretion of MIP3α is CXCL12 and PTX independent in these cells.

neutrophils = assay: Chemotherapy (cyclophosphamide)-induced neutropenia model, neutrophil counts; format: in vivo, C57BL/6 mice; details: cyclophosphamide 150 + 100 mg/kg i.p. days 1 and 4, treatment s.c. days 4-7 (4F-benzoyl-TN14003 5 mg/kg)
Protocol: In the chemotherapy-induced neutropenia model, a protocol as previously described was followed (Zuluaga et al., 2006). Briefly, Female C57BL/6 mice were injected intraperitoneally with 150 and 100 mg/kg of Cyclophosphamide (CPM) on days 1 and 4, respectively. Following the treatment with CPM, mice were injected s.c. with either G-CSF […], 4F-benzoyl-TN14003 (5 mg/kg) or their combination on day 4, 5, 6 and 7. Blood samples were drawn from each mouse on day 0 and two hours after G-CSF/4F-benzoyl-TN14003 injections on days 4, 5, 6 and 7. Lysis of the erythrocyte population in the blood samples was done using ACK lysis buffer. The number of neutrophils was determined by FACS after staining the cells with anti-PE-Gr-1 antibody.
Neutropenia was induced in female C57BL/6 mice by administration of a total dose of 250 mg/kg cyclophosphamide (CPM) in two 0.5 mL intraperitoneal injections scheduled at day 1 (150 mg/kg) and day 4 (100 mg/kg). The CPM protocol caused 4 days of neutropenia (from day 4 to day 8). When mice were treated with the combination of G-CSF and 4F-benzoyl-TN14003, a significant number of neutrophils was detected in the blood on day 6, as compared to mice that were treated with CPM only or with G-CSF or 4F-benzoyl-TN14003 alone (FIG. 12).

[4] = system: granulocytes (GR-1 positive cells); assay: Granulocyte (GR-1 positive) counts in blood and bone marrow in a chemotherapy model; format: in vivo, mice; details: CPM 250 mg/kg total i.p.; 4F-benzoyl-TN14003 5 mg/kg s.c., G-CSF 5 μg/mouse
Protocol: Mice received a total dose of 250 mg/kg cyclophosphamide (CPM) by two 0.25 ml intra-peritoneal injections scheduled at day 0 (150 mg/kg) and day 3 (100 mg/kg). Mice were subcutaneously treated with 0.2 ml of 4F-benzoyl-TN14003 (5 mg/kg) at the indicated time points, as detailed in FIG. 13A. Flow cytometery was used to assess the number of cells in the blood and bone marrow (BM), and distinguish between the different populations. Cells were gated according to forward scatter and side scatter to exclude dead cells and to identify granulocytes (GR-1 positive cells).
Mice received a total dose of 250 mg/kg CPM by two 0.25 ml intra-peritoneal injections scheduled at day 0 (150 mg/kg) and day 3 (100 mg/kg). Mice were subcutaneously treated with 0.2 ml of 4F-benzoyl-TN14003 (5 mg/kg) or G-CSF 5 μg/mouse or the combination of both at the indicated time points as detailed in FIG. 14A. Flow cytometery was used to assess the number of cells in the blood and bone marrow (BM) and distinguish between the different populations. Cells were gated according to forward scatter and side scatter to exclude dead cells and to determine granulocytes (GR-1 positive cells).

c1cc(CN2CCCNCCNCCCNCC2)ccc1CN1CCCNCCNCCCNCC1 [AMD3100, reference compound]
Activated macrophages, fold elevation of cell counts from control (white-blood-cells (WBC)): 6.1 fold
MNC, fold elevation of cell counts from control (white-blood-cells (WBC)): 3.4 fold
Neutrophils, fold elevation of cell counts from control (white-blood-cells (WBC)): 8 fold
Neutrophils, fold elevation of cell counts from control (white-blood-cells (WBC); listed as AMD31000): 8.0 fold
Total WBC, fold elevation of cell counts from control (white-blood-cells (WBC); listed as AMD31000): 2.9 fold
BFU-E in blood, fold elevation of cell counts from control [1]: ~30 fold
CFU-GEMM in blood, fold elevation of cell counts from control [1]: 15.5 fold
Progenitors in blood, fold elevation of cell counts from control [1]: 4.2 fold
BFU-E in blood, fold elevation of cell counts from control ([1]; listed as AMD31000): 35 fold
survival of lethally irradiated recipient mice ([2]; cells from 225 microliter of blood of donors given 5 mg/kg, day 33 post transplantation): 37.5%
survival of lethally irradiated recipient mice ([2]; cells from 900 microliter of blood of donors given 5 mg/kg, day 11 post transplantation): 73%
production of GR-1 and Ter119 positive cells and progenitors ([3]; stromal cells (14F1.1) seeded with BM cells, 4F-benzoyl-TN14003 10 microgram/ml, G-CSF 100 ng/ml, 4 days): did not demonstrate this effect

CXCL12: chemokine, CXCR4's only natural ligand
MIP3α secretion (PC3 cells): increased the secretion of MIP3α
MIP3α secretion (PC3-CXCR4.5 cells; PC3-CXCR4.5 cells, ELISA): increased the secretion of MIP3α
CXCR4 dependence of induced MIP3α secretion (PC3-CXCR4.5 cells; transfection with CXCR4-specific or control siRNA): CXCR4 dependent

B1: G-CSF: Granulocyte colony-stimulating factor (G-CSF) (Filgrastim Neupogen) (protein, UniProt P09919 31-207, looked up)
Granulocyte …: TPLGPASSLPQSFLLKCLEQVRKIQGDGAALQEKLVSECATYKLCHPEELVLLGHSLGIPWAPLSSCPSQALQLAGCLSQLHSGLFLYQGLLQALEGISPELGPTLDTLQLDVADFATTIWQQMEELGMAPALQPTQGAMPAFASAFQRRAGGVLVASHLQSFLEVSYRVLRHLAQP
modifications: N-terminal methionine
Activated macrophages, fold elevation of cell counts from control (white-blood-cells (WBC)): 1.4 fold
MNC, fold elevation of cell counts from control (white-blood-cells (WBC)): 1.4 fold
Total WBC, fold elevation of cell counts from control (white-blood-cells (WBC)): 1.9 fold
BFU-E in blood, fold elevation of cell counts from control [1]: 142 fold
CFU-GEMM in blood, fold elevation of cell counts from control [1]: 151 fold
Progenitors in blood, fold elevation of cell counts from control [1]: 13.6 fold
number of neutrophils in blood as % of the initial number in normal (untreated) mice (neutrophils; day 6): only a mild effect
number of neutrophils in blood as % of the initial number (neutrophils; day 7): not sufficient to elevate neutrophil counts to their normal level
GR-1 positive cells in the blood (flow cytometry) [4]: mobilize GR-1 positive cells and reduce neutropenia
differentiation and proliferation of BM cells on stromal cells (micrographs) ([3]; representative experiment, FIG. 17E): differentiating and proliferating
